Results published in PubChem BioAssay (NCI).
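Grown in 96-well plates, cells were treated for 48 hours with each compound at five concentrations. Insufficient inhibition: endpoint recorded as highest concentration tested. TGI: concentration producing complete growth inhibition.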

Legend:
Assay in all cases: NCI-60 cell line screen, 48 h
[1] = test system: 786-0 renal
[2] = test system: A498 renal
[3] = test system: A549 NSCLC
[4] = test system: ACHN renal
[5] = test system: CAKI-1 renal
[6] = test system: CCRF-CEM leukemia
[7] = test system: COLO 205 colon
[8] = test system: DU-145 prostate
[9] = test system: EKVX NSCLC
[10] = test system: HCC-2998 colon
[11] = test system: HCT-116 colon
[12] = test system: HCT-15 colon
[13] = test system: HL-60(TB) leukemia
[14] = test system: HOP-62 NSCLC
[15] = test system: HOP-92 NSCLC
[16] = test system: HS 578T breast
[17] = test system: HT29 colon
[18] = test system: IGROV1 ovarian
[19] = test system: K-562 leukemia
[20] = test system: KM12 colon
[21] = test system: LOX IMVI melanoma
[22] = test system: M14 melanoma
[23] = test system: MALME-3M melanoma
[24] = test system: MCF7 breast
[25] = test system: MDA-MB-231 breast
[26] = test system: MDA-MB-435
[27] = test system: MDA-N
[28] = test system: MOLT-4 leukemia
[29] = test system: NCI-H226 lung
[30] = test system: NCI-H23 lung
[31] = test system: NCI-H460 lung
[32] = test system: NCI-H522 lung
[33] = test system: NCI/ADR-RES ovarian
[34] = test system: OVCAR-3 ovarian
[35] = test system: OVCAR-4 ovarian
[36] = test system: OVCAR-5 ovarian
[37] = test system: OVCAR-8 ovarian
[38] = test system: PC-3 prostate
[39] = test system: RPMI-8226 leukemia
[40] = test system: RXF 393 renal
[41] = test system: SF-268 CNS
[42] = test system: SF-295 CNS
[43] = test system: SF-539 CNS
[44] = test system: SK-MEL-2 melanoma
[45] = test system: SK-MEL-28 melanoma
[46] = test system: SK-MEL-5 melanoma
[47] = test system: SN12C renal
[48] = test system: SNB-19 CNS
[49] = test system: SNB-75 CNS
[50] = test system: SR leukemia
[51] = test system: SW-620 colon
[52] = test system: T-47D breast
[53] = test system: TK-10 renal
[54] = test system: UACC-257 melanoma
[55] = test system: UACC-62 melanoma
[56] = test system: UO-31 renal

Measured: TGI

CC(C)[C@@H]1NC(=O)[C@@H]2N=C(O[C@H]2C)[C@H](C(C)C)NC(=O)C2N=C1O[C@H]2C
> 100 µM: [1] | [2] | [3] | [4] | [5] | [6] | [7] | [8] | [9] | [10] | [11] | [12] | [13] | [14] | [15] | [16] | [17] | [18] | [19] | [20] | [21] | [22] | [23] | [24] | [25] | [26] | [27] | [28] | [29] | [30] | [31] | [32] | [33] | [34] | [35] | [36] | [37] | [38] | [39] | [40] | [41] | [42] | [43] | [44] | [45] | [46] | [47] | [48] | [49] | [50] | [51] | [52] | [53] | [54] | [55] | [56]
